Data taken from ChEMBL document CHEMBL5113538, “Discovery of Novel Allosteric EGFR L858R Inhibitors for the Treatment of Non-Small-Cell Lung Cancer as a Single Agent or in Combination with Osimertinib” (J Med Chem, 2022).
pIC50: −log10 of the molar value.

Legend:
[1] = target: Epidermal growth factor receptor (Homo sapiens, UniProt P00533, C797S/L858R/T790M)
[2] = target: Epidermal growth factor receptor (Homo sapiens, UniProt P00533, C797S/L858R)
BaF3 [3] = assay: Cytotoxicity against mouse BaF3 cells expressing EGFR L858R/T790M/C797S mutant assessed as reduction in cell viability measured after 72 hrs by cell titre glo luminescence assay; format: functional, cell-based; details: for pIC50: BaF3, 72 h; for IC90: BaF3, time 72 hrs
BaF3 [4] = assay: Cytotoxicity against mouse BaF3 cells harboring EGFR L858R/C797S mutant assessed as reduction in cell viability measured after 72 hrs by cell titre glo luminescence assay; format: functional, cell-based; details: for pIC50: BaF3, 72 h; for IC90: BaF3, time 72 hrs
[5] = Intrinsic clearance in human liver hepatocytes measured per 10^6 cells incubated upto 2 hrs by LC-MS/MS analysis; format: ADME, cell-based, Hepatocyte; details: read-out: CLH
[6] = Intrinsic clearance in mouse liver hepatocytes measured per 10^6 cells incubated upto 2 hrs by LC-MS/MS analysis; format: ADME, cell-based, Hepatocyte; details: read-out: CLH
BaF3 [7] = assay: Antitumor activity against mouse BaF3 cells harboring EGFR L858R/C797S mutant allografted in Balb/c nude mouse assessed as in tumor growth inhibition at 30 mg/kg administered twice daily measured on day 20; format: functional; details: BaF3, 480 h, time 20 day, read-out: TGI

Sequence of Epidermal growth factor receptor (Homo sapiens, UniProt P00533, C797S/L858R) (P00533 25-1210 C797S/L858R limits assumed): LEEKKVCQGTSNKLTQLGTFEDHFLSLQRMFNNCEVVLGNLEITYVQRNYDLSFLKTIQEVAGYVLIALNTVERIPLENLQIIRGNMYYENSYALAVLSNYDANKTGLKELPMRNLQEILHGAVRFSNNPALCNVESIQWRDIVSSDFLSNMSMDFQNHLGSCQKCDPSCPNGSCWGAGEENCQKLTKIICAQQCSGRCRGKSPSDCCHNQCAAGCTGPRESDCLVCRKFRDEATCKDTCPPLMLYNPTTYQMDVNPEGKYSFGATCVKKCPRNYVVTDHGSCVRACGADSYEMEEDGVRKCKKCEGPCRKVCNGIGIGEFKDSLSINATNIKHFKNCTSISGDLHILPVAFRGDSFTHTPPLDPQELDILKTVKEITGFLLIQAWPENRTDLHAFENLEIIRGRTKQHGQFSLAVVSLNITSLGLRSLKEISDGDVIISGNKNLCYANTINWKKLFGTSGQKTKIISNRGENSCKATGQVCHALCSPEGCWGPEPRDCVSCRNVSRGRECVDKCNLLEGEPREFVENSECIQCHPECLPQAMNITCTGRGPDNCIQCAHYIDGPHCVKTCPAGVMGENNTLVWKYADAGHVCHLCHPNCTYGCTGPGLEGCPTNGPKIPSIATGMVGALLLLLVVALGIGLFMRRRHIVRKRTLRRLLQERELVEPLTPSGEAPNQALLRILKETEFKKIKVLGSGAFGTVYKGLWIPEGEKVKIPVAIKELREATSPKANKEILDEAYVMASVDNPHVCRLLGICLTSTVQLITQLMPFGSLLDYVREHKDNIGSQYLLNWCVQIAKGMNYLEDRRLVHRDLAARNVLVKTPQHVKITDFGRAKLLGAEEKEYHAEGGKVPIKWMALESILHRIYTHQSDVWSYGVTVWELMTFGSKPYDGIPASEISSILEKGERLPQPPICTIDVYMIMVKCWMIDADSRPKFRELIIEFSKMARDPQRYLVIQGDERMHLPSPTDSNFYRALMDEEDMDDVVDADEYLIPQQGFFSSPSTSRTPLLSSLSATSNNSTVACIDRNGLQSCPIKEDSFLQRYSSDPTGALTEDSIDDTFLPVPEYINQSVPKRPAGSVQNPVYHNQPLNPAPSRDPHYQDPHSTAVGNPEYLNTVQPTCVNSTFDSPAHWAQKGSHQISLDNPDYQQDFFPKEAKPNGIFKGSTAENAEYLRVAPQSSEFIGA
Sequence of Epidermal growth factor receptor (Homo sapiens, UniProt P00533, C797S/L858R/T790M) (P00533 25-1210 T790M/C797S/L858R limits assumed): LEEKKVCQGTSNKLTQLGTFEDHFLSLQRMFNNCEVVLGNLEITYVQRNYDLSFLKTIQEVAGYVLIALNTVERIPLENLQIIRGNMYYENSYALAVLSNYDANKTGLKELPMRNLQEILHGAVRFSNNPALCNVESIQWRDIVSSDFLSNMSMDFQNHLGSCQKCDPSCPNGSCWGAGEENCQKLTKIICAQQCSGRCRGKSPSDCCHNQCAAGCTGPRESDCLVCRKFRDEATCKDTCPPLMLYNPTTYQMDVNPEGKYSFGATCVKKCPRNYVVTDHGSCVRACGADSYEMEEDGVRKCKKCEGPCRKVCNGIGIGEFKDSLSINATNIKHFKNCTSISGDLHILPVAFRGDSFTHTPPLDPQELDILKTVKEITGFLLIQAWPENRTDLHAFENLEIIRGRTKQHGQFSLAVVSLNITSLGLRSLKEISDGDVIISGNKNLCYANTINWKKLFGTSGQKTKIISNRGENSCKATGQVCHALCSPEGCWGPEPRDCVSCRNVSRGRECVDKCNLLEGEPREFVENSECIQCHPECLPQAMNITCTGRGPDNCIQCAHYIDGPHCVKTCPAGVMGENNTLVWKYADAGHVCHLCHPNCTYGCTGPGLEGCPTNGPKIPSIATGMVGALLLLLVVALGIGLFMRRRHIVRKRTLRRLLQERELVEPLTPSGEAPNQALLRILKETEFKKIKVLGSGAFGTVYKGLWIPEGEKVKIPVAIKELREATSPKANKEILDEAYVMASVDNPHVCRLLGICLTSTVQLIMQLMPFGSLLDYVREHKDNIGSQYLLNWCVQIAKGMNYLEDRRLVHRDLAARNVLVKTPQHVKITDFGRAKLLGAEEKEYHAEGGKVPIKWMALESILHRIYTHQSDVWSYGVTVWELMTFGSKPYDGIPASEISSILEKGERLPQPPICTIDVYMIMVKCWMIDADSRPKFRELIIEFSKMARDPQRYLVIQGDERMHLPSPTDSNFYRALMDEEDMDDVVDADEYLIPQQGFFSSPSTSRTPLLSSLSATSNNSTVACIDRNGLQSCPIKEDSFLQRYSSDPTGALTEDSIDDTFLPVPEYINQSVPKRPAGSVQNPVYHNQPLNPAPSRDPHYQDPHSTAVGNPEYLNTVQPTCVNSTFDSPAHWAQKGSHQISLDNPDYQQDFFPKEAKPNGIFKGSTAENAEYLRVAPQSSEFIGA

Row | pIC50 [1] | pIC50 [2] | hepatocyte CLint [5] | hepatocyte CLint [6] | SMILES | pIC50 (BaF3 [3]) | IC90 (BaF3 [3]) | pIC50 (BaF3 [4]) | IC90 (BaF3 [4]) | inhibition in vivo at 30 mg/kg (BaF3 [7])
1 | 8.15 | 7.04 |  |  | CCN1CCN(c2ccc(-c3cc(F)c4cn(C(C(=O)Nc5nccs5)c5ncn6c5CCC6)nc4c3)cc2)CC1 (configuration not stated) | 7.89 | 30 nM | 6.19 | 2600 nM | 
2 | 8.15 | 7.27 |  |  | O=C(Nc1nccs1)C(c1ncn2c1CCC2)N1Cc2c(F)cc(C#Cc3ccc(CN4CCCCC4)cc3)cc2C1=O (configuration not stated) | 8.00 | 24 nM | 6.68 | 711 nM | 
3 | 6.94 | 5.96 |  |  | Nc1ccc(C#Cc2cc(F)c3c(c2)C(=O)N(C(C(=O)Nc2nccs2)c2ncn4c2CCC4)C3)cn1 (configuration not stated) | 6.70 | 490 nM | < 5.00 | > 10000 nM | 
4 | 8.40 | 6.74 | 7 µL/min/1e6 cells | 68 µL/min/1e6 cells | O=C(Nc1nccs1)C(c1ncn2c1CCC2)N1Cc2c(Cl)cccc2C1=O (configuration not stated) |  |  |  |  | 
5 | 7.64 | 5.49 |  |  | O=C(Nc1nccs1)C(c1n[nH]c2c1CCC2)N1Cc2ccccc2C1=O (configuration not stated) |  |  |  |  | 
6 | 8.00 |  |  |  | Cc1c(-c2ccc(N3CCOCC3)cc2)cc(C(F)F)c2cn(C(C(=O)Nc3nccs3)c3ncn4c3CCC43CC3)nc12 (configuration not stated) |  |  | 8.52 |  | 26%
7 | 8.22 | 6.97 |  |  | O=C(Nc1nccs1)C(c1ncn2c1CCC2)n1cc2c(F)cc(C#Cc3ccc(CN4CCC(O)CC4)cc3)cc2n1 (configuration not stated) | 8.05 |  | 6.10 |  | 
8 | 7.77 | 7.52 |  |  | O=C(Nc1nccs1)C(c1ncn2c1C[C@@H](F)C2)n1cc2c(Cl)cc(-c3ccc(N4CCN(C5CC5)CC4)cc3)c(Cl)c2n1 (mixture of isomers) | 7.64 | 55 nM | 7.44 | 104 nM | 
9 | 8.40 | 7.89 | 3.1 µL/min/1e6 cells | 33 µL/min/1e6 cells | O=C(Nc1nccs1)C(c1ncn2c1CCC2)N1Cc2c(cc(C#Cc3ccc(CN4CCC(CO)CC4)cc3)cc2C(F)F)C1=O (configuration not stated) | 9.00 | 3 nM | 8.40 | 12 nM | 
10 |  | 7.48 |  |  | O=C(Nc1nccs1)C(c1ncn2c1CCC2)n1cc2c(Cl)cc(-c3ccc(N4CCOCC4)cc3)c(Cl)c2n1 (configuration not stated) | 7.51 | 74 nM | 7.34 | 126 nM | 
11 | 6.34 | < 5.00 |  |  | O=C(Nc1nccs1)C(c1ncn2c1CCC2)N1Cc2ccc(C#Cc3cccnc3)cc2C1=O (configuration not stated) | 5.92 | 3000 nM | < 5.00 | > 10000 nM | 
12 |  | 7.82 |  |  | CCN1CCN(c2ccc(-c3cc(Cl)c4cn(C(C(=O)Nc5nccs5)c5ncn6c5C[C@@H](F)C6)nc4c3Cl)cc2)CC1 (mixture of isomers) | 8.10 | 19 nM | 7.82 | 42 nM | 
13 | 8.15 | 6.89 |  |  | O=C(Nc1nccs1)C(c1ncn2c1CCC2)N1Cc2c(F)cc(C#Cc3cccnc3)cc2C1=O (configuration not stated) | 7.92 | 30 nM | 5.74 | 7000 nM | 
14 | 8.52 | 7.59 | 3.3 µL/min/1e6 cells | 50 µL/min/1e6 cells | O=C(Nc1nccs1)C(c1ncn2c1CCC2)N1Cc2c(cc(C#Cc3ccc(CN4CCC(CO)CC4)cc3)cc2C(F)(F)F)C1=O (configuration not stated) | 9.30 | 1 nM | 8.70 | 5 nM | 
15 | < 5.00 | < 5.00 |  |  | Cc1[nH]nc(C(C(=O)Nc2nccs2)N2Cc3ccccc3C2=O)c1C (configuration not stated) |  |  |  |  | 
16 | 8.30 | 7.48 | 1.6 µL/min/1e6 cells | 3.6 µL/min/1e6 cells | O=C(Nc1nccs1)C(c1ncn2c1CCC2)N1Cc2c(F)cc(C#Cc3ccc(CN4CCC(O)CC4)cc3)cc2C1=O (configuration not stated) | 8.30 | 13 nM | 7.14 | 285 nM | 
17 |  |  | 67 µL/min/1e6 cells | 27 µL/min/1e6 cells | O=C(Nc1nccs1)C(c1cc(F)ccc1O)N1Cc2ccccc2C1=O (configuration not stated) |  |  |  |  | 
18 | 7.80 | 5.77 |  |  | O=C(Nc1nccs1)C(c1ncn2c1CCC2)N1Cc2ccccc2C1=O (configuration not stated) |  |  |  |  | 
19 |  | 7.66 |  |  | CCN1CCN(c2ccc(-c3cc(Cl)c4cn(C(C(=O)Nc5nccs5)c5ncn6c5CCC6)nc4c3Cl)cc2)CC1 (configuration not stated) | 7.89 | 33 nM | 7.59 | 70 nM | 
20 |  |  |  |  | O=C(Nc1nccs1)C(c1cc(F)ccc1O)N1Cc2ccc(-c3ccc(N4CCNCC4)cc3)cc2C1=O (configuration not stated) | 7.52 | 40 nM | 5.81 | 7280 nM | 
21 | 6.03 | < 5.00 |  |  | O=C(Nc1nccs1)C(c1cc[nH]n1)N1Cc2ccccc2C1=O (configuration not stated) |  |  |  |  | 
22 | 8.40 | 7.92 | 5 µL/min/1e6 cells | 19 µL/min/1e6 cells | CC1(C)CCc2c(C(C(=O)Nc3nccs3)N3Cc4c(cc(C#Cc5ccc(CN6CCC(CO)CC6)cc5)cc4C(F)F)C3=O)ncn21 (configuration not stated) | 9.00 | 3 nM | 9.00 | 2 nM | 
23 | 8.52 |  |  |  | Cc1c(C#Cc2ccc(CN3CCC(CO)CC3)cc2)cc(C(F)F)c2cn(C(C(=O)Nc3nccs3)c3ncn4c3CCC4)nc12 (configuration not stated) | 9.00 |  | 8.70 |  | 
24 | 8.15 | 6.53 |  |  | O=C(Nc1nccs1)C(c1ncn2c1CCC2)N1Cc2ccc(C#Cc3ccc(CN4CCC(O)CC4)cc3)cc2C1=O (configuration not stated) | 8.00 | 24 nM | 5.90 | 3250 nM | 
25 | 7.80 | 6.47 | 6.5 µL/min/1e6 cells | 6 µL/min/1e6 cells | O=C(Nc1nccs1)C(c1ncn2c1CCC2)N1Cc2ccc(C#Cc3ccc(CN4CCCCC4)cc3)cc2C1=O (configuration not stated) | 7.77 | 42 nM | 5.89 | 3100 nM | 
26 |  |  |  |  | O=C(Nc1nccs1)C(c1ncn2c1CCC2)N1Cc2ccc(C#Cc3ccccc3)cc2C1=O (configuration not stated) |  |  | < 5.00 | > 10000 nM | 
27 | 8.15 |  |  |  | Cc1c(-c2ccc(N3CCOCC3)cc2)cc(C(F)F)c2cn(C(C(=O)Nc3nccs3)c3ncn4c3C[C@@H](F)C4)nc12 (mixture of isomers) |  |  | 8.40 |  | 
28 |  | 7.92 |  |  | O=C(Nc1nccs1)C(c1ncn2c1CCC2)N1Cc2c(F)cc(C#Cc3ccc(CN4CCC(CO)CC4)cc3)cc2C1=O (configuration not stated) | 9.00 | 2 nM | 7.80 | 47 nM | 
29 | 8.22 | 7.77 |  |  | O=C(Nc1nccs1)C(c1ncn2c1C[C@@H](F)C2)n1cc2c(Cl)cc(-c3ccc(N4CCOCC4)cc3)c(Cl)c2n1 (mixture of isomers) |  |  | 7.92 |  | 
